The text below walks through data of patent US10065948B2, “Histone deacetylase inhibitors and compositions and methods of use thereof” (CHDI Foundation, Inc., priority 2014, dated 2018).

In assay [1] the target is Histone Deacetylase 4 (HDAC4) catalytic domain (Homo sapiens (Human), UniProt P56524). In words: Biochemical HDAC inhibition assay, fluorogenic substrate Boc-Lys(Tfa)-AMC. On the procedure:
The potency of compounds is quantified by measuring the Histone Deacetylase 4 (HDAC4) catalytic domain enzymatic activity using the fluorogenic substrate, Boc-Lys(Tfa)-AMC. The substrate is deacetylated to Boc-Lys-AMC by HDAC4. Cleavage by trypsin results in the release of the fluorophore AMC from the deacetylated substrate. The fluorescence of the sample is directly related to the histone deacetylase activity in the sample.
Stocks of 60 μL aliquots of the 10 mM compound in DMSO are prepared and stored at −20° C. From one stock aliquot of each compound to be tested and the reference compound, a 16-point serial dilution is prepared according to Table 1 using a 125 μL 16-channel Matrix multi-channel pipette (Matrix Technologies Ltd).
2 μL (200×) of each diluted solution and each control (full activity: 100% DMSO alone or full inhibition 1 mM) is stamped into V-bottomed polypropylene 384-well compound plates using either the Bravo (384-well head from Agilent) or 12.5 μL 16-channel Matrix multi-channel pipette (Matrix Technologies Ltd). Each well with the 200× compound solution is diluted 1:20 by the addition of 38 μL assay buffer+DMSO (10.5% DMSO, 45 mM Tris-HCl, 123 mM NaCl, 2.4 mM KCl, and 0.9 mM MgCl2 at pH 8.0 and equilibrated to room temperature).
The HDAC4 catalytic domain enzyme is human catalytic domain HDAC4 protein (amino acids 648-1032) with a C-terminal 6× histidine tag, produced by BioFocus. A working solution of enzyme is prepared from a 500 μg/mL stock aliquot of HDAC4 catalytic domain (thawed on ice) diluted to 0.2 μg/mL with assay buffer (50 mM Tris-HCl, 137 mM NaCl, 2.7 mM KCl, and 1 mM MgCl2 at pH 8 and equilibrated to room temperature) just prior to the addition of the enzyme to the assay.
5× (50 μM) substrate is prepared just prior to the addition to the assay. A 1 mM substrate stock is made by diluting a 100 mM Boc-Lys(Tfa)-AMC in DMSO solution 1:100 by adding it drop-wise to assay buffer (equilibrated to room temperature) while vortexing at slow speed to prevent precipitation. The 5× substrate is prepared by diluting the 1 mM substrate solution 1:20 by adding it drop-wise to assay buffer (equilibrated to room temperature) while vortexing at slow speed to prevent precipitation.
3× (30 μM) Developer/Stop Solution is prepared just prior to addition to the plate by diluting a stock solution of 10 mM reference compound 1:333 in 25 mg/mL trypsin (PAA Laboratories Ltd.) equilibrated to room temperature.
5 μL of each solution of 1:20 diluted compound from above is transferred to a clear bottomed, black, 384-well assay plate using the Bravo or the Janus (384-well MDT head from Perkin Elmer). Using a 16-channel Matrix multi-channel pipette, 35 μL of the working solution of HDAC4 catalytic domain enzyme (0.2 μg/mL in assay buffer) is transferred to the assay plate. […] The assay plate is then shaken for two minutes on an orbital shaker at 900 rpm (rotations per minute). Next the plate is incubated for 15 minutes at 37° C. The reaction is stopped by adding 25 μL of 3× (30 μM) developer/stop solution to the assay plates using either the Bravo, Janus or a 16-channel Matrix multi-channel pipette. Assay plates are then shaken for 5 minutes on an orbital shaker at 1200 rpm. Next, the assay plates are incubated at 37° C. for 1 hour in a tissue culture incubator. Finally, the fluorescence is measured (Excitation: 355 nm, Emission: 460 nm) using PerkinElmer EnVision in top read mode.

Assay [2] relates to cellular histone deacetylase enzymatic activity in Jurkat E6-1 cells. In words: Inhibition of cellular HDAC activity, Boc-Lys(Tfa)-AMC substrate (Cell Lys-TFA). The class given is cell-based. The procedure: The potency of the compounds is quantified by measuring the cellular histone deacetylase enzymatic activity using the fluorogenic substrate, Boc-Lys(Tfa)-AMC. After penetration in Jurkat E6-1 cells, the substrate is deacetylated to Boc-Lys-AMC. After cell lysis and cleavage by trypsin, the fluorophore AMC is released from the deacetylated substrate only. The fluorescence of the sample is directly related to the histone deacetylase activity in the sample.
Jurkat E6.1 cells are cultured according to standard cell culture protocols in Jurkat E6.1 Growth Media (RPMI without phenol red, 10% FBS, 10 mM HEPES, and 1 mM Sodium Pyruvate). Jurkat E6.1 cells are counted using a Coulter Counter and resuspended in Jurkat E6.1 growth media at a concentration of 75,000 cells/35 μL. 35 μL or 75,000 cells is seeded into Greiner microtitre assay plates. The plates are then incubated at 37° C. and 5% CO2 while other assay components are being prepared.
Stocks of 70 μL aliquots of the 10 mM compound in DMSO are prepared and stored at −20° C. From one stock aliquot of each compound to be tested and the reference compound, a 16-point serial dilution is prepared according to Table 1 using a 125 μL 16-channel Matrix multi-channel pipette.
2 μL (200×) of each diluted solution and each control (full activity: 100% DMSO alone or full inhibition 1 mM) is stamped into V-bottom polypropylene 384-well compound plates using either the Bravo, Janus, or 12.5 μL 16-channel Matrix multi-channel pipette. Each well with the 200× compound solution is diluted 1:20 by the addition of 38 μL Jurkat assay buffer+DMSO (9.5% DMSO, RPMI without phenol red, 0.09% FBS, 9 mM Hepes, and 0.9 mM Sodium Pyruvate equilibrated to room temperature)
5× (500 μM) substrate is prepared just prior to the addition to the assay. The 5× substrate is prepared by diluting a 100 mM Boc-Lys(Tfa)-AMC in DMSO solution 1:200 by adding it drop-wise to Jurkat assay medium (RPMI without phenol red, 0.1% FBS, 10 mM Hepes, and 1 mM Sodium Pyruvate equilibrated to 37° C.) while vortexing at slow speed to prevent precipitation.
10 mL of 3× lysis buffer is prepared with 8.8 ml of 3× stock lysis buffer (50 mM Tris-HCl, pH 8.0, 137 mM NaCl, 2.7 mM KCl, 1 mM MgCl2, 1% Nonidet P40 Substitute equilibrated to room temperature) and 1.2 mL of 3 mg/mL Trypsin equilibrated to room temperature.
5 μL of each solution of 1:20 diluted compound from above is transferred to the Greiner microtitre assay plates with 75,000 cells/well using the Bravo. Cells are then incubated for 2 hours at 37° C. and 5% CO2. […] The cells are then incubated for 3 hours at 37° C. and 5% CO2. Next, 25 μL of 3× lysis buffer is added to each well using either the 125 μL 16 channel pipette or the Bravo. The assay plate is then incubated overnight (15-16 hours) at 37° C. and 5% CO2. The following day, the plates are shaken on an orbital shaker for 1 minute at 900 rpm. Finally the top read fluorescence (Excitation: 355 nm, Emission: 460 nm) is measured using PerkinElmer EnVision.

The subject of assay [3] is cellular histone deacetylase activity (Lys-Ac). The assay is described as follows: Inhibition of cellular HDAC activity (Cell Lys-Ac). The class given is cell-based. Particulars: Lys-Ac substrate.
[4] abbreviates: Homo sapiens, Jurkat E6.1, Lys-TFA substrate.

Chain of Histone Deacetylase 4 (HDAC4) catalytic domain (P56524 648-1032): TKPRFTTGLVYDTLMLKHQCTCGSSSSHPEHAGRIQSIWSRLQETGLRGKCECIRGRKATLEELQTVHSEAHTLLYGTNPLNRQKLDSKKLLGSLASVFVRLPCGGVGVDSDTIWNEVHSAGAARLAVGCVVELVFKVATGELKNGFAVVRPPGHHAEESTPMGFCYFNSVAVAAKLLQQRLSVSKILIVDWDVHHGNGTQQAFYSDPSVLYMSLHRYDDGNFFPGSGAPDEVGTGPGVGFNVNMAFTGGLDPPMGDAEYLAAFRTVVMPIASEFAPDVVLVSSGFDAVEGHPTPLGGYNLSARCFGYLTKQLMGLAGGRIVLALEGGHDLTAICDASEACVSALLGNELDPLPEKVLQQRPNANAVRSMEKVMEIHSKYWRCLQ

Usually IC50 stands for the midpoint of a concentration-inhibition curve. Lower therefore signals higher potency. As for `Cc1c(F)cccc1C1(C(=O)NO)Cc2nc(-c3cnn(C)c3C)sc2C1` (single isomer, unassigned) [Example 76, E1-(abs)-2-(1,5-Dimethyl-1H-pyrazol-4-yl)-5-(3-fluoro-2-methylphenyl)-N-hydroxy-5,6-dihydro-4H-cyclopenta[d]thiazole-5-carboxamide], the figures for the IC50 in assay [1], in assay [2] (Lys-TFA substrate) and in assay [3] were 68 nM, 36 nM and greater than 50000 nM, respectively.
As to `Cc1c(F)cccc1C1(C(=O)NO)CCc2nc(C3CC3)sc2C1` (stereo not shown) [Example 42, 2-Cyclopropyl-6-(3-fluoro-2-methylphenyl)-N-hydroxy-4,5,6,7-tetrahydrobenzo[d]thiazole-6-carboxamide], the values for the IC50 in assay [1], in assay [2] (setting [4]) and in assay [3] were 770 nM, 320 nM and greater than 50000 nM, respectively.
For `Cc1c(F)cccc1C1(C(=O)NO)CCc2nc(C3CC3)ncc2C1` (stereo not shown) [Example 46, 2-Cyclopropyl-6-(3-fluoro-2-methylphenyl)-N-hydroxy-5,6,7,8-tetrahydroquinazoline-6-carboxamide] the same measures were 1600 nM, 760 nM and greater than 50000 nM.
For `Cc1c(F)cccc1[C@]1(C(=O)NO)CCc2c1cnn2Cc1ccccc1` [Example 93, (R)-1-benzyl-4-(3-fluoro-2-methylphenyl)-N-hydroxy-1,4,5,6-tetrahydrocyclopenta[c]pyrazole-4-carboxamide] the same measures were 27 nM, 170 nM and greater than 50000 nM.
With `Cc1c(F)cccc1C1(C(=O)NO)CCc2nc(-c3ccccc3)ncc2C1` (stereo not shown) [Example 47, 6-(3-Fluoro-2-methylphenyl)-N-hydroxy-2-phenyl-5,6,7,8-tetrahydroquinazoline-6-carboxamide], the IC50 is 3200 nM in assay [1], 1100 nM in assay [2] (setting [4]) and greater than 50000 nM in assay [3].
The corresponding values for `Cc1c(F)cccc1C1(C(=O)NO)CCc2nc(NS(=O)(=O)c3ccccc3)sc2C1` (stereo not shown) [Example 41, 6-(3-Fluoro-2-methylphenyl)-N-hydroxy-2-(phenylsulfonamido)-4,5,6,7-tetrahydrobenzo[d]thiazole-6-carboxamide] are 190 nM, 1600 nM and greater than 50000 nM.
For `Cc1c(F)cccc1[C@]1(C(=O)NO)CCc2c1cnn2C1CC1` [Example 59, (R)-1-cyclopropyl-4-(3-fluoro-2-methylphenyl)-N-hydroxy-1,4,5,6-tetrahydrocyclopenta[c]pyrazole-4-carboxamide], the IC50 in assay [1] was 100 nM; in assay [2] (setting [4]), 720 nM; in assay [3] it was greater than 50000 nM.
The corresponding values for `Cc1c(F)cccc1C1(C(=O)NO)CCc2ncsc2C1` (stereo not shown) [Example 44, 6-(3-Fluoro-2-methylphenyl)-N-hydroxy-4,5,6,7-tetrahydrobenzo[d]thiazole-6-carboxamide] are 1000 nM, 1500 nM and greater than 50000 nM.
For `Cc1c(F)cccc1[C@]1(C(=O)NO)Cc2cnn(-c3ccccc3F)c2C1` [Example 3, (S)-5-(3-Fluoro-2-methylphenyl)-1-(2-fluorophenyl)-N-hydroxy-1,4,5,6-tetrahydrocyclopenta[c]pyrazole-5-carboxamide] the same measures were 17 nM, 33 nM and greater than 50000 nM.
For `Cc1cccc(-n2ncc3c2C[C@](C(=O)NO)(c2cccc(F)c2C)C3)c1` [Example 24, (S)-5-(3-Fluoro-2-methylphenyl)-N-hydroxy-1-(m-tolyl)-1,4,5,6-tetrahydrocyclopenta[c]pyrazole-5-carboxamide] the same measures were 28 nM, 64 nM and greater than 50000 nM.
For `Cc1c(F)cccc1[C@]1(C(=O)NO)Cc2cnn(-c3c(F)cccc3F)c2C1` [Example 11, (S)-1-(2,6-Difluorophenyl)-5-(3-fluoro-2-methylphenyl)-N-hydroxy-1,4,5,6-tetrahydrocyclopenta[c]pyrazole-5-carboxamide], the IC50 was 27 nM in assay [2] (setting [4]) and greater than 50000 nM in assay [3].
The corresponding values for `Cc1c(F)cccc1[C@]1(C(=O)NO)Cc2snc(-c3ccccc3)c2C1` [Example 80, E1-(abs)-5-(3-Fluoro-2-methylphenyl)-N-hydroxy-3-phenyl-5,6-dihydro-4H-cyclopenta[d]isothiazole-5-carboxamide] are 45 nM and greater than 50000 nM.
The corresponding values for `Cc1c(F)cccc1[C@@]1(C(=O)NO)Cc2cnc(C3CC3)nc2C1` [Example 50, (R)-2-Cyclopropyl-6-(3-fluoro-2-methylphenyl)-N-hydroxy-6,7-dihydro-5H-cyclopenta[d]pyrimidine-6-carboxamide] are 120 nM and greater than 50000 nM.
The corresponding values for `Cc1cc(F)ccc1-n1ncc2c1C[C@](C(=O)NO)(c1cccc(F)c1C)C2` [Example 22, (S)-5-(3-Fluoro-2-methylphenyl)-1-(4-fluoro-2-methylphenyl)-N-hydroxy-1,4,5,6-tetrahydrocyclopenta[c]pyrazole-5-carboxamide] are 11 nM and greater than 50000 nM.
On to `O=C(NO)[C@@]1(c2ccccc2)CCc2ccccc21` [Example 88, E2-(abs)-N-hydroxy-1-phenyl-2,3-dihydro-1H-indene-1-carboxamide], for which the IC50 in assay [2] (setting [4]) and in assay [3] was greater than 50000 nM in each case.
